Results from patent US11504340B2, “Ocular compositions” (THE QUEEN'S UNIVERSITY OF BELFAST, priority 2017, dated 2022).

Assay: Stability of dexamethasone in phosphate buffer for long term release
Format: physicochemical

C[C@@H]1C[C@H]2[C@@H]3CCC4=CC(=O)C=C[C@]4(C)[C@@]3(F)[C@@H](O)C[C@]2(C)[C@@]1(O)C(=O)CO [dexamethasone]
stability in phosphate buffer for long term release: instability
